Experimental data as given in patent US20110052503A1, “BIODEGRADABLE CONTRAST AGENTS” (IOPHARMA TECHNOLOGIES AB, priority 2007, published 2011).

Assay: Stability of iohexyl hexa-acetate in human plasma
Details: iohexyl formed from 300 μM IHA in citrated plasma, 37° C., FIG. 1
Description: A stock solution of iohexyl hexa-acetate was prepared by adding 100 mg IHA to a 100 ml volumetric flask, followed by 1.0 ml DMSO and deionised water to 100 ml, giving a final concentration of 1.0 mg/ml. The plasma solution was prepared by adding 1.61 ml of the IHA stock solution to 3.39 ml of citrated bovine plasma, giving a final concentration of 300 μM. The citrated human plasma was incubated at 37° C., and 0.25 ml plasma removed at 1, 2, 3, 4, 6, 8, 24, 30 and 48 h. Proteins were discarded from the samples by centrifugal filtration and the resulting filtrates analyzed by HPLC.

concentration of iohexyl in plasma, first 8 h (first 8 h): constant
concentration of iohexyl in plasma, 8 to 48 h (from 8 to 48 h): increases dramatically
SMILES: CC(=O)N(CC(O)CO)c1c(I)c(C(=O)NCC(O)CO)c(I)c(C(=O)NCC(O)CO)c1I (centres unmarked) [iohexyl]
